Data on 53 substances can be found in article PMC4865845, “A human genome-wide loss-of-function screen identifies effective chikungunya antiviral drugs” (Nature Communications, 2016).

The test system of the data set is CHIKV. The data set is classed as cell-based, chikungunya virus.
The substance “Hs_KCTD10_1 (sense AAGGCTTTGTTTAGGGATCAA; chemistry not given here)” displayed a Score_si1 of 2.04.

For the substance “Hs_SIMP_1 (sense CAGGGAGACATTAGATCACAA; chemistry not given here) [reference compound]”, the Score_si4 is given as -0.7.

Substance “Hs_PDLIM5_3 (AAGAGACGGTTTGGCATTTAT; chemistry not given here)” gave a Score_si1 of 1.17.

For the substance “Hs_IQGAP1_3 (sense AAGGCATATCAAGATCGGTTA; chemistry not given here)”, the Score_si4 is listed as 0.77.

In the case of “s10955 (sense GAGAAGAAGTATTACTTAT; chemistry not given here)”, the Score_si4 turned out to be 0.29.

Turning to “Hs_PCBP1_2 (TAAGAGTGGAATGTTAATAAA; chemistry not given here)”, the Score_si1 is given as 1.94.

“s35017 (AAGACAGGCTGATCAACTA; chemistry not given here)” showed a Score_si3 of 0.94.

“s17802 (GGAGTTAAACATAGATGTA; chemistry not given here)” came in with a Score_si3 of 1.28.

With “s9325 (CTTCAGTGCTGATCAGGTA; chemistry not given here)”, the Score_si4 is 0.41.

“Hs_ASH2L_3 (TTGGAACACCCGTTTAACAAA; chemistry not given here)” returned a Score_si1 of 1.11.

The substance “s31191 (GATAATCAGTTCAACTAAA; chemistry not given here)” returned a Score_si2 of 1.84.

With “s27641 (sense GGGAAACAGTTGGAAGAGA; chemistry not given here)”, the Score_si3 stood at 1.64.

“s26801 (sense CCGAGAACCTCACAGAGAA; chemistry not given here)” returned a Score_si1 of 2.26.

In turn, “s11515 (sense GGATAACACTGTACAAGCT; chemistry not given here)” yielded a Score_si1 of 1.79.

As for “s38777 (GGCTCAAACTGGGAGTCAA; chemistry not given here)”, the Score_si2 is recorded as 1.07.

Substance “Hs_RRBP1_3 (sense CTGGCTGCAGGTGAAAGGAAA; chemistry not given here)” yielded a Score_si4 of 1.53.

The substance “Hs_RAB3D_5 (sense TCCGTGGTGCCTTCTAGCTTA; chemistry not given here)” gave a Score_si3 of 0.91.

Take “s21425 (sense GCCTGTTACAGATGACATA; chemistry not given here)”: the Score_si3 was 0.63.

Consider “s18079 (CAATAGTAAAGGGATATAA; chemistry not given here) [reference compound]”, for which the Score_si4 is -0.28.

For “Hs_LRP6_7 (CTGGATGGTTCTGACCGTGTA; chemistry not given here)”, the Score_si1 came out at 1.93.

On to “s27210 (sense GGTTTTAAACATAACGAAA; chemistry not given here) [reference compound]”, for which the Score_si3 is recorded as -0.32.

Substance “Hs_MDS032_1 (TCGAATCATGCCTAAACTCAA; chemistry not given here)” had a Score_si4 of 1.39.

For “s31192 (GGAAGGACTTACTACTACA; chemistry not given here)”, the Score_si3 is given as 1.79.

“Hs_LBX1_1 (sense CACCAGATCTATGAATTGGAA; chemistry not given here)” gave a Score_si3 of 1.41.

The substance “Hs_KIAA0674_1 (sense CCGGAAACAACTGGAACTCAA; chemistry not given here)” showed a Score_si1 of 1.96.

“s38242 (CGGTCTCATGTACCAGAAA; chemistry not given here)” registered a Score_si3 of 0.52.

Take “Hs_C14orf160_2 (ATGGAGTTACTGAAATGTATA; chemistry not given here) [reference compound]”: the Score_si2 is on record as -1.06.

“Hs_PEX19_1 (ATGGGTGGCTTCATGAATTAA; chemistry not given here)” yielded a Score_si1 of 1.26.

Turning to “s31180 (CCATAGATGAGAAGCGGTT; chemistry not given here)”, the Score_si3 amounted to 1.93.

Turning to “s36692 (GGCTATTGATTGTCCACAT; chemistry not given here) [reference compound]”, the Score_si4 is given as -0.43.

On to “Hs_CIZ1_2 (sense CAGCATGGAAGAGATTCAGAA; chemistry not given here) [reference compound]”, for which the Score_si2 is -1.05.

“s28378 (sense CATTGTCACTTATTCGACT; chemistry not given here)” returned a Score_si4 of 1.57.

Consider “s51652 (sense CCAGGCCCATTCTACAATA; chemistry not given here)”, for which the Score_si4 worked out at 0.04.

In turn, “Hs_ATP6AP2_5 (CAAGTGCTACATGATATTTCA; chemistry not given here)” returned a Score_si3 of 0.69.

“Hs_EZH2_7 (AACCATGTTTACAACTATCAA; chemistry not given here)”: the Score_si4 is given as 0.98.

On to “s18077 (CCTGTTCATTGATCGAACA; chemistry not given here) [reference compound]”, for which the Score_si3 is -0.59.

“Hs_RORC_2 (sense TAGGATGTGCCGGGCCTACAA; chemistry not given here)” displayed a Score_si1 of 1.28.

Turning to “Hs_MRPS12_7 (TTCCATCAGGACCACTATTAA; chemistry not given here)”, the Score_si1 came to 1.99.

For the substance “Hs_DC-UbP_1 (AAGGCAGTTAAGAAATAGATA; chemistry not given here)”, the Score_si2 was found to be 1.13.

In turn, “s37917 (GCCTCAGCTCAAACTCAAA; chemistry not given here)” had a Score_si2 of 1.72.

“Hs_SREBF2_4 (sense AAGGCCATTGATTACATCAAA; chemistry not given here)” registered a Score_si3 of 1.41.

As to “s20340 (sense CAGGCTATCTGAACACGGT; chemistry not given here)”, the Score_si3 is reported as 1.49.

As to “Hs_LRP6_2 (CTGGATTGTTATCCGACTGAA; chemistry not given here)”, the Score_si2 is 1.63.

“Hs_DLD_3 (CAGGTGGAATTGCCCACTTAT; chemistry not given here)” registered a Score_si1 of 2.15.

For “Hs_UBE2C_8 (GAGCCCTTGTATATTAAATAA; chemistry not given here) [reference compound]”, the Score_si1 is -1.05.

As to “s35330 (CGGTGACTATGAAAGAAAT; chemistry not given here)”, the Score_si4 is reported as 0.15.

As for “s9324 (ACAACTTCAGTGCTGATCA; chemistry not given here)”, the Score_si3 amounted to 0.83.

In the case of “s13807 (sense GCATCTGAAGACTCAGGCA; chemistry not given here)”, the Score_si4 is -0.26.

For “s20509 (sense GGACGGCCCAAATCCAAAA; chemistry not given here) [reference compound]”, the Score_si3 was -0.99.

In turn, “s13805 (sense TCACTGTGCTGATCGGGAA; chemistry not given here)” showed a Score_si3 of 0.78.

For the substance “Hs_GNG13_4 (sense CCCACTCACTCCATCTTGTAA; chemistry not given here)”, the Score_si3 is 1.13.

“s18241 (GCTTGATGGTTCAACTCCA; chemistry not given here)” yielded a Score_si1 of 2.01.

Turning to “Hs_GNB2L1_2 (sense CAGATTGTCTCTGGATCTCGA; chemistry not given here)”, the Score_si1 worked out at 2.65.
